# Experimental data from patent publication EP0343830A2, “Ring-substituted 2-amino-1,2,3,4-tetrahydronaphthalenes” (ELI LILLY AND COMPANY, priority 1988, dated 1989).
# Counter-ions that a name gives are not always drawn.
# Target: T1, 5HT UPTAKE (Rattus norvegicus, UniProt P31652)
# T1 construct: Crude synaptosomal preparations were isolated after differential centrifugation; from tissue; host or cells: rat cerebral cortex, crude synaptosomes
# Assay: Inhibition of synaptosomal uptake of 3H-serotonin (3H-5HT) in vitro, rat cerebral cortex synaptosomes
# Format: biochemical, Sprague-Dawley rats
# Conditions: concentration needed to inhibit the uptake of 3H-5HT by 50%; rat cortical synaptosomes, 37°C, 5 min, 50 nM 3H-5HT
# Experimental: This general procedure is set forth in Wong et al., Drug Development Research 6:397-403 (1985).
# Male Sprague-Dawley rats (110-150 g) from Harlan Industries (Cumberland, IN) were fed Purina Chow ad libitum for at least 3 days before being used in the studies. Rats were killed by decaptiation. Whole brains were removed and dissected. Cerebral cortex was homogenized in 9 volumes of a medium containing 0.32 M sucrose and 10 mM glucose. Crude synaptosomal preparations were isolated after differential centrifugation at 1,000 g for 10 min. and 17,000 g for 28 min. The final pellets were suspended in the same medium and kept in ice until use within the same day.
# Synaptosomal uptake of ³H-serotonin (³H-5-hydroxytryptamine, ³H-5HT) was determined as follows: Cortical synaptosomes (equivalent to 1 mg of protein) were incubated at 37°C for 5 min in 1 ml of Krebs-bicarbonate medium containing also 10 mM glucose, […], 1 mM ascorbic acid, 0.17 mM EDTA and 50 nM ³H-5HT. The reaction mixture was immediately diluted with 2 ml of ice-chilled Krebs-bicarbonate buffer and filtered under vacuum with a cell harvester (Brandel, Gaithersburg, MD). Filters were rinsed twice with approximately 5 ml of ice-chilled 0.9% saline and were transferred to a counting vial containing 10 ml of scintillation fluid (PCS, Amersham, Arlington Heights, IL). Radioactivity was measured by a liquid scintillation spectrophotometer. Accumulation of ³H-5HT at 4°C represented the background and was subtracted from all samples.
# The results of the evaluation of various compounds of the present invention are set forth below in Table I. In Table I, the first column provides the Example Number of the compound evaluated; the next 7 columns identify the structure of the compound evaluated when taken with the formula set forth in the heading; the next-succeeding column identifies the salt form of the compound evaluated; and the final column provides the amount of the test compound expressed in nanomolar concentration needed to inhibit the uptake of ³H-5HT by 50%, and is indicated in Table I as IC₅₀. Numbers in parentheses, if any, represent percent inhibition at 1000 nM.
# T1 sequence (P31652 whole entry): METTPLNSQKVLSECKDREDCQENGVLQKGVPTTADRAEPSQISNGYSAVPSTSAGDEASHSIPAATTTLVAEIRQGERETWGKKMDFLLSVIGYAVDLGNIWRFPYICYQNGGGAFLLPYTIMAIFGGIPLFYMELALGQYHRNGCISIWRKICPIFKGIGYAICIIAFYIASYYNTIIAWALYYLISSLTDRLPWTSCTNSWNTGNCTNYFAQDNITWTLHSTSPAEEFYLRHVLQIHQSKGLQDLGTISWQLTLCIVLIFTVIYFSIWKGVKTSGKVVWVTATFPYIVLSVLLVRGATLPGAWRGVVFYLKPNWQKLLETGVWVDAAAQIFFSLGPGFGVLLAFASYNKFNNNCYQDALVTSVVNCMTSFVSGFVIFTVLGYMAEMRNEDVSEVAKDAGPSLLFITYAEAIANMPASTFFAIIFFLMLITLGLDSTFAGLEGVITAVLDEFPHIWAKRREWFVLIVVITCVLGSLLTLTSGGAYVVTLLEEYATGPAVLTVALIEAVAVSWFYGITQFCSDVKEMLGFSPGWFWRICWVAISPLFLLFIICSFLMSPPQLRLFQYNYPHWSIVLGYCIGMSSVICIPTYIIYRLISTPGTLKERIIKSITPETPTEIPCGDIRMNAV
row,Structure (SMILES),IC50 [nM]
1,"C[C@@H]1c2ccc(Cl)cc2CC[C@@H]1N1CCNCC1 (racemic) [Example 33, cis-1-Methyl-2-piperazinyl-6-chloro-1,2,3,4-tetrahydronaphthalene dihydrochloride]",12
2,"COc1ccc(Br)c2c1C(C)C(N1CCNCC1)CC2 (single isomer, unassigned) [Example 19, 1-Methyl-2-piperazinyl-5-bromo-8-methoxy-1,2,3,4-tetrahydronaphthalene dihydrochloride]",70
3,"C[C@@H]1c2ccc(Cl)cc2CC[C@@H]1N1CCNCC1 (single isomer, unassigned; (+)) [Example 33a, (+)cis-1-Methyl-2-piperazinyl-6-chloro-1,2,3,4-tetrahydronaphthalene dihydrochloride dihydrate]",84
4,"C[C@@H]1c2ccc(Cl)cc2CC[C@@H]1N1CCNCC1 (single isomer, unassigned; (-)) [Example 33b, (-)cis-1-Methyl-2-piperazinyl-6-chloro-1,2,3,4-tetrahydronaphthalene dihydrochloride dihydrate]",8.2
5,"COc1cccc2c1CC(N1CCN(C)CC1)CC2 (stereo not shown) [Example 1, 2-(Methylpiperazinyl)-8-methoxy-1,2,3,4-tetrahydronaphthalene dihydrochloride]",57
6,"COc1cccc2c1CC(N1CCNCC1)CC2 (stereo not shown) [Example 2, 2-Piperazinyl-8-methoxy-1,2,3,4-tetrahydronaphthalene dihydrochloride]",90
7,"Clc1cccc2c1CC(N1CCNCC1)CC2 (stereo not shown) [Example 3, 2-Piperazinyl-8-chloro-1,2,3,4-tetrahydronaphthalene dimaleate]",83
8,"CN1CCN(C2CCc3cccc(Cl)c3C2)CC1 (stereo not shown) [Example 4, 2-(N-methylpiperazinyl)-8-chloro-1,2,3,4-tetrahydronaphthalene dimaleate]",35
9,"Clc1cccc2c1CC(N1CCCNCC1)CC2 (stereo not shown) [Example 5, 2-(Homopiperazinyl)-8-chloro-1,2,3,4-tetrahydronaphthalene dimaleate]",260
10,"CN1CCN(C2CCc3cccc(F)c3C2)CC1 (stereo not shown) [Example 6, 2-(N-methylpiperazinyl)-8-fluoro-1,2,3,4-tetrahydronaphthalene dimaleate]",180
11,"Cc1cccc2c1CC(N1CCN(C)CC1)CC2 (stereo not shown) [Example 7, 2-(N-Methylpiperazinyl)-8-methyl-1,2,3,4-tetrahydronaphthalene dihydrochloride]",87
12,"Cc1ccc(C)c2c1CCC(N1CCN(C)CC1)C2 (stereo not shown) [Example 8, 2-(N-Methylpiperazinyl)-5,8-dimethyl-1,2,3,4-tetrahydronaphthalene dimaleate]",140
13,"CN1CCN(C2CCc3cccc(Br)c3C2)CC1 (stereo not shown) [Example 9, 2-(N-Methylpiperazinyl)-8-bromo-1,2,3,4-tetrahydronaphthalene dimaleate]",90
14,"COc1ccc(OC)c2c1CCC(N1CCN(C)CC1)C2 (stereo not shown) [Example 10, 2-(N-methylpiperazinyl)-5,8-dimethoxy-1,2,3,4-tetrahydronaphthalene dihydrochloride]",100
15,"CC1c2c(Cl)cccc2CCC1N1CCN(C)CC1 (stereo not shown) [Example 11, 1-Methyl-2-(N-methylpiperazinyl)-8-chloro-1,2,3,4-tetrahydronaphthalene dimaleate]",650
16,"CC1c2c(Cl)cccc2CCC1N1CCNCC1 (stereo not shown) [Example 12, 1-Methyl-2-piperazinyl-8-chloro-1,2,3,4-tetrahydronaphthalene dihydrochloride]",270
17,"CN1CCN(C2CCc3cccc(O)c3C2)CC1 (stereo not shown) [Example 14, 2-(N-Methylpiperazinyl)-8-hydroxy-1,2,3,4-tetrahydronaphthalene dihydrobromide]",50
18,"COc1ccc(Br)c2c1CC(N1CCN(C)CC1)CC2 (stereo not shown) [Example 15, 2-(N-Methylpiperazinyl)-5-bromo-8-methoxy-1,2,3,4-tetrahydronaphthalene dihydrochloride]",12
19,"COc1ccc(Br)c2c1CC(N1CCNCC1)CC2 (stereo not shown) [Example 16, 2-Piperazinyl-5-bromo-8-methoxy-1,2,3,4-tetrahydronaphthalene dihydrochloride]",3.7
20,"Cc1ccc(Br)c2c1CC(N1CCN(C)CC1)CC2 (stereo not shown) [Example 17, 2-(N-methylpiperazinyl)-5-bromo-8-methyl-1,2,3,4-tetrahydronaphthalene dihydrochloride]",17

row,Structure (SMILES),IC50 [nM]
1,"CSc1cccc2c1CC(N1CCN(C)CC1)CC2 (stereo not shown) [Example 18, 2-(N-methylpiperazinyl)-8-methylthio-1,2,3,4-tetrahydronaphthalene dimaleate]",40
2,"COc1ccc(Cl)c2c1CC(N1CCN(C)CC1)CC2 (stereo not shown) [Example 21, 2-(N-methylpiperazinyl)-5-chloro-8-methoxy-1,2,3,4-tetrahydronaphthalene dihydrochloride]",16
3,"COc1ccc(I)c2c1CC(N1CCN(C)CC1)CC2 (stereo not shown) [Example 22, 2-(N-methylpiperazinyl)-5-iodo-8-methoxy-1,2,3,4-tetrahydronaphthalene dihydrochloride]",23
4,"COc1ccc(C=O)c2c1CC(N1CCN(C)CC1)CC2 (stereo not shown) [Example 23, 2-(N-methylpiperazinyl)-5-formyl-8-methoxy-1,2,3,4-tetrahydronaphthalene dihydrochloride hydrate]",10
5,"COc1ccc(C#N)c2c1CC(N1CCN(C)CC1)CC2 (stereo not shown) [Example 24, 2-(N-methylpiperazinyl)-5-cyano-8-methoxy-1,2,3,4-tetrahydronaphthalene dihydrochloride]",12
6,"Clc1ccc2c(c1)CCC(N1CCNCC1)C2 (stereo not shown) [Example 25, 2-Piperazinyl-6-chloro-1,2,3,4-tetrahydronaphthalene dihydrochloride]",100
7,"Brc1ccc2c(c1)CCC(N1CCNCC1)C2 (stereo not shown) [Example 26, 2-Piperazinyl-6-bromo-1,2,3,4-tetrahydronaphthalene dihydrochloride]",350
8,"Fc1ccc2c(c1)CCC(N1CCNCC1)C2 (stereo not shown) [Example 27, 2-Piperazinyl-6-fluoro-1,2,3,4-tetrahydronaphthalene dihydrochloride]",340
9,"Cc1ccc2c(c1)CCC(N1CCNCC1)C2 (stereo not shown) [Example 28, 2-Piperazinyl-6-methyl-1,2,3,4-tetrahydronaphthalene dihydrochloride]",210
10,"COc1ccc2c(c1)CCC(N1CCNCC1)C2 (stereo not shown) [Example 29, 2-Piperazinyl-6-methoxy-1,2,3,4-tetrahydronaphthalene dihydrochloride]",750
11,"Clc1cc2c(cc1Cl)CC(N1CCNCC1)CC2 (stereo not shown) [Example 30, 2-Piperazinyl-6,7-dichloro-1,2,3,4-tetrahydronaphthalene dihydrochloride]",115
12,"CN1CCN(C2CCc3cc(Br)ccc3C2)CC1 (stereo not shown) [Example 31, 2-(N-Methylpiperazinyl)-6-bromo-1,2,3,4-tetrahydronaphthalene dihydrochloride]",520
13,"CN1CCN(C2CCc3cc(Cl)ccc3C2)CC1 (stereo not shown) [Example 32, 2-(N-Methylpiperazinyl)-6-chloro-1,2,3,4-tetrahydronaphthalene dihydrochloride]",450
14,"CC1c2ccccc2CCC1N1CCNCC1 (stereo not shown) [Example 34, 1-Methyl-2-piperazinyl-1,2,3,4-tetrahydronaphthalene dihydrochloride]",59
15,"CC1c2ccccc2CCC1N1CCN(C)CC1 (stereo not shown) [Example 35, 1-Methyl-2-(N-methylpiperazinyl-1,2,3,4-tetrahydronaphthalenedihydrochloride]",490
16,"Clc1ccc2c(c1)CCC(N1CCCNCC1)C2 (stereo not shown) [Example 36, 2-Homopiperazinyl-6-chloro-1,2,3,4-tetrahydronaphthalene dihydrochloride]",240
17,"Oc1ccc2c(c1)CCC(N1CCNCC1)C2 (stereo not shown) [Example 37, 2-Piperazinyl-6-hydroxy-1,2,3,4-tetrahydronaphthalene dihydrobromide]",1000
18,"COc1ccc(C(F)F)c2c1CC(N1CCN(C)CC1)CC2 (stereo not shown) [Example 38, 2-(N-Methylpiperazinyl)-5-difluoromethyl-8-methoxy-1,2,3,4-tetrahydronaphthalene dimaleate]",23
19,"CSc1ccc2c(c1)CCC(N1CCN(C)CC1)C2 (stereo not shown) [Example 39, 2-(N-Methylpiperizinyl)-6-methylthio-1,2,3,4-tetrahydronaphthalene dihydrochloride]",434
20,"CC1c2ccc(Br)cc2CCC1N1CCNCC1 (stereo not shown) [Example 40, 1-Methyl-2-piperazinyl-6-bromo-1,2,3,4-tetrahydronaphthalene dihydrochloride]",34
